Laboratory results from PMC11923649, “Novel C-2 Aromatic Heterocycle-Substituted Triterpenoids Inhibit Hedgehog Signaling in GLI1 Overexpression Cancer Cells” (ACS Omega, 2025).

Tests used:
[1] = tested on: A549 (lung adenocarcinoma); assay: MTS cytotoxicity assay, 72 h, A549; format: cell-based; details: Homo sapiens, A549, 72 h
Procedure: (§1) Based on the preliminary results and tests of a larger library of known triterpenoids, a small set of 2-substituted lupane and 18α-oleanane derivatives was designed and synthesized. As the first step, the cytotoxic activity of the synthesized derivatives was assessed using an MTS assay following 72 h of treatment (Table 1). Selected cell lines A549 (lung adenocarcinoma) and DU-145 (prostate cancer) are both dependent on Hh signaling. In addition, K562 (chronic myelogenous leukemia) was included as a cell line sensitive to Hh inhibitors[32] and a type of hematological malignancy with active Hh signaling.[33] MRC-5 lung fibroblasts and BJ human skin fibroblasts cell lines were used to evaluate the toxicity against nontumor cells. Compounds were also tested using the standard panel of other cancer cell lines, as described in our earlier work (Table 1).[27]
(§2) The human prostate tumor-derived cell line DU145 was obtained from ATCC (American Type Culture Collection) and cultured in RPMI 1640 (Roswell Park Memorial Institute) medium supplemented with 10% (v/v) fetal bovine serum (FBS). Human prostate tumor-derived LNCaP cells were obtained from ATCC and cultured in RPMI 1640 medium supplemented with 10% FBS. The human nonsmall cell lung carcinoma (NSCLC)-derived cell line HOP-62 was obtained from the DSMZ (German Collection of Microorganisms and Cell Cultures) and cultured in RPMI 1640 medium supplemented with 10% FBS. The human nonsmall cell lung carcinoma-derived cell line NCI-H322 was obtained from ECACC (European Collection of Authenticated Cell Cultures) and cultured in RPMI 1640 medium supplemented with 10% FBS. The human nonsmall cell lung carcinoma-derived cell line NCI-H522 was obtained from ATCC and cultured in RPMI 1640 medium supplemented with 10% FBS. The human lung tumor-derived cell line A549 was obtained from ATCC and cultured in Dulbecco’s Modified Eagle’s Medium (DMEM) supplemented with 10% FBS. The human medulloblastoma-derived cell line DAOY was obtained from ATCC and cultured in Eagle’s Minimum Essential Medium (EMEM) supplemented with 10% FBS. The human glioblastoma-derived cell line T98G was obtained from ATCC and cultured in EMEM medium supplemented with 10% FBS, 1 mmol/L sodium pyruvate, and 1 mmol/L nonessential amino acid mixture. All the above-mentioned cell lines were cultured at 37 °C in an atmosphere of 5% CO2 with 95% humidity. The cytotoxicity MTS assays were performed using MTS (3-(4,5-dimethylthiazol-2-yl)-5-(3-carboxymethoxyphenyl)-2-(4-sulfophenyl)-2H-tetrazolium) tetrazolium salt. Briefly, cells were seeded in a 384-well transparent plate in a volume of 25 μL and a concentration of 15,000 cells/mL (DU145, LNCaP, HOP-62, A549, DAOY, T98G) or 30,000 cells/mL (NCI-H322, NCI-H522). The next day, cells were exposed to compounds in a concentration range of 50–0.0975 μmol/L (dilution factor 2) and cultured in the presence of the compounds for 72 h. After 72 h, 5 μL of MTS/phenazine methosulfate solution was pipetted into each well and incubation continued for 1–4 h. Finally, the absorbance at 490 nm was measured using an EnVision multifunctional modular reader (PerkinElmer). The IC50 value was determined using Dotmatics software.

DU-145 (prostate cancer) = assay: MTS cytotoxicity assay, 72 h, DU-145; format: cell-based, human; details: Homo sapiens, DU-145, 72 h
Procedure: as §1, §2

[2] = tested on: K562 (chronic myelogenous leukemia); assay: MTS cytotoxicity assay, 72 h, K562; format: cell-based; details: Homo sapiens
Procedure: as §1, §2

K562-TAX = assay: MTS cytotoxicity assay, 72 h, K562-TAX; format: cell-based
Procedure: as §1, §2

HCT 116 = assay: MTS cytotoxicity assay, 72 h, HCT 116; format: cell-based; details: Homo sapiens, HCT-116, 72 h
Procedure: as §1, §2

HCT116 p53–/– = assay: MTS cytotoxicity assay, 72 h, HCT116 p53–/–; format: cell-based; details: Homo sapiens, HCT-116, 72 h
Procedure: as §1, §2

U2OS = assay: MTS cytotoxicity assay, 72 h, U2OS; format: cell-based; details: Homo sapiens
Procedure: as §1, §2

CCRF-CEM = assay: MTS cytotoxicity assay, 72 h, CCRF-CEM; format: cell-based; details: for IC50: Homo sapiens, CCRF-CEM, 72 h, MTS
Procedure: as §1, §2

CEM-DNR = assay: MTS cytotoxicity assay, 72 h, CEM-DNR; format: cell-based; details: Homo sapiens
Procedure: as §1, with “1).[27] […]” for “1).[27]”

[3] = tested on: BJ human skin fibroblasts; assay: MTS cytotoxicity assay, 72 h, BJ fibroblasts; format: cell-based; details: normal fibroblasts; for IC50: Homo sapiens, Skin fibroblast
Procedure: as §1, §2

MRC-5 lung fibroblasts = assay: MTS cytotoxicity assay, 72 h, MRC-5 fibroblasts; format: cell-based, human; details: normal fibroblasts; for IC50: Homo sapiens, MRC5, 72 h
Procedure: as §1, §2

[4] = CCRF-CEM vs average of BJ and MRC-5, full Table S1
[5] = IC50 of CCRF-CEM line vs average of both fibroblasts (BJ and MRC-5), Table 1

Structure (SMILES) | IC50 ([1]; full Table S1) [µM] | IC50 (DU-145 (prostate cancer); full Table S1) [µM] | IC50 (K562-TAX; full Table S1) [µM] | IC50 (HCT 116; full Table S1) [µM] | IC50 (HCT116 p53–/–; full Table S1) [µM] | IC50 (U2OS; full Table S1) [µM] | IC50 (CCRF-CEM; full Table S1) [µM] | IC50 (CEM-DNR; full Table S1) [µM] | IC50 (MRC-5 lung fibroblasts; full Table S1) [µM] | IC50 ([1]; Table 1) [µM] | IC50 (DU-145 (prostate cancer); Table 1) [µM] | IC50 ([2]; Table 1) [µM] | IC50 (K562-TAX; Table 1) [µM] | IC50 (HCT 116; Table 1) [µM] | IC50 (HCT116 p53–/–; Table 1) [µM] | IC50 (U2OS; Table 1) [µM] | IC50 (CCRF-CEM; Table 1) [µM] | SI (selectivity index) (CCRF-CEM; [5]) | IC50 (CEM-DNR; Table 1) [µM] | IC50 ([3]; Table 1) [µM] | other results
C=C(C)[C@@H]1CC[C@]2(C(=O)OCc3ccccc3)CC[C@]3(C)C(CCC4[C@@]5(C)C=C(c6cc7ccccc7s6)C(=O)C(C)(C)C5CC[C@]43C)C12 (some centres unmarked) [Compound 10k, Benzyl 2-(Benzo[b]thien-2-yl)-3-oxolupa-1,20(29)-dien-28-oate] | > 50 | > 50 | > 50 | > 50 | > 50 | > 50 | > 50 | > 50 | > 50 |  |  |  |  |  |  |  |  |  |  |  | IC50 ([2]; full Table S1): > 50 µM; SI (selectivity index) (CCRF-CEM; [4]): > 1.0; IC50 ([3]; full Table S1): > 50 µM
C=C(C)[C@@H]1CC[C@]2(C(=O)OCc3ccccc3)CC[C@]3(C)C(CCC4[C@@]5(C)C=C(c6cncc7ccccc67)C(=O)C(C)(C)C5CC[C@]43C)C12 (some centres unmarked) [Compound 10l, Benzyl 2-(4-Isoquinoline)-3-oxolupa-1,20(29)-dien-28-oate] | > 50 | > 50 | > 50 | > 50 | > 50 | > 50 | > 50 | > 50 | > 50 |  |  |  |  |  |  |  |  |  |  |  | IC50 ([2]; full Table S1): > 50 µM; SI (selectivity index) (CCRF-CEM; [4]): > 1.0; IC50 ([3]; full Table S1): > 50 µM
C=C(C)[C@@H]1CC[C@]2(C(=O)OCc3ccccc3)CC[C@]3(C)C(CCC4[C@@]5(C)C=C(c6ccc7[nH]ccc7c6)C(=O)C(C)(C)C5CC[C@]43C)C12 (some centres unmarked) [Compound 10m, Benzyl 2-(Indol-5-yl)-3-oxolupa-1,20(29)-dien-28-oate] | > 50 | > 50 | > 50 | > 50 | > 50 | > 50 | > 50 | > 50 | > 50 |  |  |  |  |  |  |  |  |  |  |  | IC50 ([2]; full Table S1): > 50 µM; SI (selectivity index) (CCRF-CEM; [4]): > 1.0; IC50 ([3]; full Table S1): > 50 µM
C=C(C)[C@@H]1CC[C@]2(C(=O)OCc3ccccc3)CC[C@]3(C)C(CCC4[C@@]5(C)C=C(c6ccc7cn[nH]c7c6)C(=O)C(C)(C)C5CC[C@]43C)C12 (some centres unmarked) [Compound 10n, Benzyl 2-(Indazol-6-yl)-3-oxolupa-1,20(29)-dien-28-oate] | > 50 | > 50 | > 50 | > 50 | > 50 | > 50 | > 50 | > 50 | > 50 |  |  |  |  |  |  |  |  |  |  |  | IC50 ([2]; full Table S1): > 50 µM; SI (selectivity index) (CCRF-CEM; [4]): > 1.0; IC50 ([3]; full Table S1): > 50 µM
C=C(C)[C@@H]1CC[C@]2(C(=O)O)CC[C@]3(C)C(CCC4[C@@]5(C)C=C(c6cccnc6)C(=O)C(C)(C)C5CC[C@]43C)C12 (some centres unmarked) [Compound 11g, 2-(Pyridin-3-yl)-3-oxolupa-1,20(29)-dien-28-oic acid] | 34.8 | 11.1 |  | 33.5 | 39.6 | 44.4 | 18.1 | 20.5 |  | 35 | 11 | > 50 | 20 | 34 | 40 | 44 | 18 | >2.8 | 21 | > 50 | IC50 BJ ([3]; Table 1): below the detection limit; IC50 (MRC-5 lung fibroblasts; Table 1): > 50 µM; IC50 MRC-5 (MRC-5 lung fibroblasts; Table 1): below the detection limit
C=C(C)[C@@H]1CC[C@]2(C(=O)O)CC[C@]3(C)C(CCC4[C@@]5(C)C=C(c6ccncc6)C(=O)C(C)(C)C5CC[C@]43C)C12 (some centres unmarked) [Compound 11h, 2-(Pyridin-4-yl)-3-oxolupa-1,20(29)-dien-28-oic acid] | 21.3 | 10.8 | 10.8 | 25.1 | 30.6 | 28.4 |  |  |  | 21 | 11 | > 50 | 11 | 25 | 31 | 28 | 5.2 | >9.5 | 17 | > 50 | IC50 BJ ([3]; Table 1): below the detection limit; IC50 (MRC-5 lung fibroblasts; Table 1): > 50 µM; IC50 MRC-5 (MRC-5 lung fibroblasts; Table 1): below the detection limit
C=C(C)[C@@H]1CC[C@]2(C(=O)O)CC[C@]3(C)C(CCC4[C@@]5(C)C=C(c6cncnc6)C(=O)C(C)(C)C5CC[C@]43C)C12 (some centres unmarked) [Compound 11i, 2-(Pyrimidin-5-yl)-3-oxolupa-1,20(29)-dien-28-oic acid] |  | 17.5 |  | 34.6 |  |  |  | 41.8 |  | > 50 | 18 | > 50 | 25 | 35 | 41 | > 50 | 19.7 | >2.5 | 42 | > 50 | IC50 (MRC-5 lung fibroblasts; Table 1): > 50 µM
C=C(C)[C@@H]1CC[C@]2(C(=O)O)CC[C@]3(C)C(CCC4[C@@]5(C)C=C(c6ccc7c(c6)OCCO7)C(=O)C(C)(C)C5CC[C@]43C)C12 (some centres unmarked) [Compound 11j, 2-(1,4-Benzodioxan)-3-oxolupa-1,20(29)-dien-28-oic acid] | 13.5 |  | 16.5 | 22.1 | 20.9 | 21.9 |  |  | 27.8 | 14 | 7 | 7.5 | 17 | 22 | 21 | 22 | 4.9 | >7.9 | 24 | > 50 | IC50 (MRC-5 lung fibroblasts; Table 1): 28 µM
C=C(C)[C@@H]1CC[C@]2(C(=O)O)CC[C@]3(C)C(CCC4[C@@]5(C)C=C(c6cncc7ccccc67)C(=O)C(C)(C)C5CC[C@]43C)C12 (some centres unmarked) [Compound 11l, 2-(Isoquinoline)-3-oxolupa-1,20(29)-dien-28-oic acid] | 13.9 |  |  | 18.5 | 30.8 | 24.8 |  |  |  | 14 | 8.3 | > 50 | 8.7 | 19 | 31 | 25 | 7.2 | >7.0 | 17 | > 50 | IC50 BJ ([3]; Table 1): below the detection limit; IC50 (MRC-5 lung fibroblasts; Table 1): > 50 µM; IC50 MRC-5 (MRC-5 lung fibroblasts; Table 1): below the detection limit
